In brackets after ≈: the same amount, converted by molar mass.
Key:
Assay in all cases: Liquid medium dilution method (MIC)
Assay type in all cases: cell-based
[1] = tested on: Staphylococcus aureus 011UC4; details: 24 h incubation at 37°C, read-out: concentrations minimales inhibitrices (C.M.I.)
Description: (§1) Méthode des dilutions en milieu liquide
(§2) On prépare une série de tubes dans lesquels on répartit une même quantité de milieu nutritif stérile. On distribue dans chaque tube des quantités croissantes du produit à étudier, puis chaque tube est ensemencé avec une souche bactérienne. Après incubation de vingt-quatre heures à l'étuve à 37°C, l'inhibition de la croissance est appréciée par transillumination, ce qui permet de déterminer les concentrations minimales inhibitrices (C.M.I.) exprimées en microgrammes/cm^3.

[2] = tested on: Streptococcus agalactiae groupe B 02B1HT1; details: 24 h incubation at 37°C, read-out: concentrations minimales inhibitrices (C.M.I.)
Description: as §1, §2

[3] = tested on: Streptococcus agalactiae groupe B 02B1SJ1; details: 24 h incubation at 37°C, read-out: concentrations minimales inhibitrices (C.M.I.)
Description: as §1, §2

[4] = tested on: Streptococcus faecalis groupe D 02D2UC1; details: Enterococcus faecalis, 24 h incubation at 37°C, read-out: concentrations minimales inhibitrices (C.M.I.)
Description: as §1, §2

[5] = tested on: Streptococcus faecium groupe D 02D3HT1; details: Enterococcus faecium, 24 h incubation at 37°C, read-out: concentrations minimales inhibitrices (C.M.I.)
Description: as §1, §2

[6] = tested on: Streptococcus mitis 02mitCB1; details: 24 h incubation at 37°C, read-out: concentrations minimales inhibitrices (C.M.I.)
Description: as §1, §2

[7] = tested on: Streptococcus pneumoniae 030GR20; details: 24 h incubation at 37°C, read-out: concentrations minimales inhibitrices (C.M.I.)
Description: as §1, §2

[8] = tested on: Streptococcus pneumoniae 030PW23c; details: 24 h incubation at 37°C, read-out: concentrations minimales inhibitrices (C.M.I.)
Description: as §1, §2

[9] = tested on: Streptococcus pneumoniae 030RO1i; details: 24 h incubation at 37°C, read-out: concentrations minimales inhibitrices (C.M.I.)
Description: as §1, §2

[10] = tested on: Streptococcus pneumoniae 030SJ1c; details: 24 h incubation at 37°C, read-out: concentrations minimales inhibitrices (C.M.I.)
Description: as §1, §2

[11] = tested on: Streptococcus pneumoniae 032UC1; details: 24 h incubation at 37°C, read-out: concentrations minimales inhibitrices (C.M.I.)
Description: as §1, §2

[12] = tested on: Streptococcus pyogenes groupe A 02A1UC1; details: 24 h incubation at 37°C, read-out: concentrations minimales inhibitrices (C.M.I.)
Description: as §1, §2

Streptococcus sanguis = details: 24 h incubation at 37°C, read-out: concentrations minimales inhibitrices (C.M.I.)
Description: as §1, §2

MIC [1]: 0.3 µg/mL (≈ 0.335 µM)
MIC [2]: 0.08 µg/mL (≈ 0.0894 µM)
MIC [3]: 0.08 µg/mL (≈ 0.0894 µM)
MIC [4]: 0.08 µg/mL (≈ 0.0894 µM)
MIC [5]: 0.08 µg/mL (≈ 0.0894 µM)
MIC [6]: 0.04 µg/mL (≈ 0.0447 µM)
MIC [7]: 0.04 µg/mL (≈ 0.0447 µM)
MIC [8]: 0.08 µg/mL (≈ 0.0894 µM)
MIC [9]: 0.08 µg/mL (≈ 0.0894 µM)
MIC [10]: 0.15 µg/mL (≈ 0.168 µM)
MIC [11]: ≤ 0.02 µg/mL
MIC [12]: 0.08 µg/mL (≈ 0.0894 µM)
MIC (Streptococcus sanguis): 0.08 µg/mL (≈ 0.0894 µM)
SMILES: CC[C@H]1OC(=O)[C@H](C)C(=O)[C@H](C)[C@@H](O[C@@H]2O[C@H](C)C[C@H](N(C)C)[C@H]2O)[C@](C)(OC)C[C@@H](C)/C(=N\OC2CCCNC2)[C@H](C)[C@H]2N(NCCCc3ccnc4ccccc34)C(=O)O[C@]12C (stereo partly shown) [Exemple 3]

From patent publication EP0968222B1, “NOVEL ERYTHROMYCIN DERIVATIVES, METHOD OF PREPARATION AND APPLICATION AS MEDICINES” (Aventis Pharma S.A., priority 1997, dated 1998)
